In the assay the test system is CEM cells HIV-1 protection, formazan growth assay. The assay can be described thus: NCI AIDS Antiviral Assay. The conditions noted are these: for IC50: measured here: growth of uninfected CEM cells. Put shortly: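 Human CEM cells, uninfected and HIV-1-infected, received five drug concentrations, and growth was read by soluble formazan assay. Compounds giving at least 50% protection were retested; reproducible 100% protection defined confirmed active.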

Calls of active or inactive are those of the source.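 How the source made its calls: active means compounds giving half or more protection of infected cells from virus-caused growth loss, again on retest; inactive means the rest.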 Bounds are passed on as bounds.

As to `CN(C)C(=S)/N=c1\ssc(=S)n1C`, the result was inactive. As for `O=C(O)CCC(NC(=O)c1ccccc1)C(=O)O` (stereo not given), the outcome was inactive. In general, EC50 refers to the concentration that produces a half-maximal response. By IC50 is commonly meant the concentration that inhibits the measured activity by half. Read a low IC50 as greater potency. `Cc1c(O)c2ccccc2[nH]c1=O`: the EC50 was above 200 µM and the IC50 was above 200 µM. In the case of `O=C(O)/C(Cl)=C(/Cl)C(=O)Nc1cc(Cl)ccc1Cl`, the result was inactive.

With `COC(=O)C(c1ccc(OC)cc1)N1C(=O)[C@@H](NC(=O)c2ccccc2)[C@H]1[C@@H](C)O` (stereo not given in full), the EC50 was above 200 µM and the IC50 is above 200 µM. Consider `COC(=O)c1c(-c2cc(OC)c(OC)c(OC)c2)oc2ccccc2c1=O`, for which the EC50 was above 97.7 µM and the IC50 amounted to 1.45 µM. Taken in the same sequence, the figures for `O/N=C1/C(=C/c2ccc(Br)cc2)CCCC1C(NO)c1ccc(Br)cc1` (stereo not given) were above 20.9 µM and above 20.9 µM. `COC(=O)[C@@H]1COC(C(C)(C)C)N1C(=O)C(c1ccccc1)c1ccccc1` (stereo not given in full): the outcome was inactive. Consider `CCOC(=O)C(C)(C)Oc1ccc(/C=C/C(=O)c2ccc(Cl)cc2)cc1`, for which the EC50 was above 10 µM and the IC50 was above 10 µM. As for `CCN(CCCl)CCCCNc1c2ccccc2nc2ccc(OC)cc12`, the result was inactive.

In the case of `CC(C)N(Cc1ccccc1)S(=O)(=O)c1n[nH]c(C(C)(C)C)n1`, the EC50 is above 200 µM and the IC50 was above 200 µM. With `Cc1ccsc1/C=N/NC1=NCCN1`, the EC50 is above 200 µM and the IC50 was above 100 µM.

For `CN(C)C(=O)N1N[C@H](c2ccccc2)[C@@H]1c1ccccc1`, the EC50 was above 200 µM and the IC50 worked out at 135 µM.

With `COc1ccc(N=C(C)c2ccncc2)cc1`, the EC50 was above 200 µM and the IC50 was 10.5 µM. Taken in the same sequence, the figures for `Nc1cn(C2OC(CC(c3ccccc3)(c3ccccc3)c3ccccc3)C(O)C2O)c(=O)[nH]c1=O` (stereo not given) were above 138 µM and 28.8 µM. On to `COc1cccc(NC(=S)/C(=C(/[O-])c2ccc([N+](=O)[O-])cc2)[n+]2ccccc2)c1`, for which the EC50 is above 200 µM and the IC50 was above 200 µM. `COc1cccc(C2c3cc4c(cc3OC(N3CCCC3)C2c2ccccc2)OCO4)c1O` (stereo not given): the EC50 was above 200 µM and the IC50 is 3.16 µM. For the compound `COC(=O)CCC(=O)Nc1ccc(Cl)cc1C`, the result was inactive.

Turning to `O=C1NP23(OCCO2)Oc2ccccc2C3(C(F)(F)F)O1` (stereo not given), the EC50 was above 776 µM and the IC50 was 389 µM. As to `NCCCCCCNS(=O)(=O)c1cccc2c(Cl)cccc12`, the EC50 was above 200 µM and the half-inhibitory concentration (IC50) was determined as 13.5 µM. For `CC(C)Cc1cnc(CC(C)C)c(-c2cc3ccccc3[nH]2)n1`, the EC50 is above 8.91 µM and the IC50 was above 8.91 µM. For the compound `COc1ccc(C(C2=C(O)CC(C)OC2=O)C2=C(O)CC(C)OC2=O)cc1` (stereo not given), the EC50 was above 661 µM and the IC50 came out at 427 µM. On to `CCOC(=O)C(=O)Nc1cccc(C)c1C`, for which the EC50 is above 813 µM and the IC50 is above 813 µM. With `COC(=O)[C@@](NC(=O)OCc1ccccc1)([C@H](C)O)C(F)(F)F`, the EC50 was above 200 µM and the IC50 was 110 µM.

For `COC(=O)c1cc(C(c2cc(C(=O)OC)c(O)c(Br)c2C)C(Cl)Cl)c(C)c(Br)c1O`, the EC50 was above 200 µM and the IC50 worked out at 66.1 µM. Consider `COC(=O)c1ccc(C)cc1C1CN=NC12Cc1cc(C)ccc1C2=O` (stereo not given), for which the EC50 was above 200 µM and the IC50 came out at 9.77 µM.

For the compound `O=C1C=C(NC(=O)C2CCCCC2)c2ncccc2C1=O`, the result was inactive. In turn, `NC(=O)CNC(=O)c1ccccc1SC(=O)NCCCCl` showed an EC50 of 3.72 µM and a 50% inhibitory concentration (IC50) of 64.6 µM. Taken in the same sequence, the figures for `O=C1OC2CS(=O)CC2O1` (stereo not given) were above 1550 µM and above 1550 µM.

As for `CCCCCCCCCC1(N=[N+]=[N-])C(=O)c2ccccc2N(C)C1=O` (stereo not given), the EC50 was above 200 µM and the IC50 came out at 33.9 µM. Turning to `O=NN1C(c2ccccc2)C2CCCC(C2=O)C1c1ccccc1` (stereo not given), the EC50 was above 58.9 µM and the IC50 was above 58.9 µM.

The values above are taken from PubChem BioAssay AID179 (DTP/NCI, 2004).
